This assay has as its system human cord blood-derived CD34+ cells. Briefly: Expansion of CD34+ cells from human cord blood-derived CD34+ cells. Type of assay: cell-based. The following applies: 168 h, number of CD34+ cells relative to absence of compound, 7 days, StemSpan SFEM with 100 ng/mL SCF, read-out: Expansion efficiency; for fold induction at 1 µg/mL: 1 μg/mL compound; for fold induction at 0.3 µg/mL: 0.3 μg/mL compound. The protocol:
Commercially available human cord blood-derived CD34^+ cells (Cambrex Bio Science Walkersville) were plated on a 12-well plate (Corning) (from 5000 to 10000 cells/1 ml/well). As the culture medium, StemSpan SFEM (Stemcell Technologies) containing 100 ng/mL SCF (R&D Systems) was used, and Compounds Nos. 1 to 37 dissolved in dimethyl sulfoxide were added in an amount of 0.1% (v/v) to a final concentration of 0.3 or 1 μg/mL.
After the cells were incubated in liquid culture at 37° C. for 7 days in a CO2 incubator (in an atmosphere containing 5 vol % CO2), the total number of cells was counted by trypan blue assay (Invitrogen) or Flow-Count™ fluorosphere assay (Beckman Coulter). The number of CD34^+ cells was calculated as follows. After the incubation, the cells in the liquid culture was stained with a CD34 antibody (PE, Becton, Dickinson and Company). The stained cells were analyzed with a flow cytometer (Beckman Coulter) to determined the proportion of CD34^+ cells, which was multiplied by the total number of cells to calculate the number of CD34^+ cells.
The expansion efficiencies in the presence of 0.3 μg/mL or 1 μg/mL of compounds based on the number of CD34^+ cells in the absence of them are shown in Table 2 on a scale of A for expansion efficiencies of 3 or greater, and B for expansion efficiencies of at least 2 and less than 3.

For `C/C(=N\NC(=S)Nc1ccc(C(=O)O)cc1)c1nn(C)c(-c2ccc(C(F)(F)F)cc2)c1O` [Compound 1], the fold induction at 1 µg/mL was at least 3.
For the compound `C/C(=N\NC(=O)c1ccc(C(=O)O)cc1)c1csc(-c2ccc(Cl)c(Cl)c2)c1O` [Compound 2], the fold induction at 1 µg/mL lay within 2 to 3.
`C/C(=N\NC(=S)Nc1ccc(C(=O)O)cc1)c1csc(-c2ccc(C(F)(F)F)cc2)c1O` [Compound 3]: the fold induction at 1 µg/mL is at least 3.
On to `C/C(=N\NC(=O)c1ccc(C(=O)O)c([NH2+][O-])c1)c1csc(-c2ccc(C(C)(C)C)cc2)c1O` [Compound 4], for which the fold induction at 1 µg/mL is at least 3.
Turning to `C/C(=N\NC(=O)c1ccc(C(=O)O)c([NH2+][O-])c1)c1csc(-c2ccc(Cl)c(Cl)c2)c1O` [Compound 5], the fold induction at 1 µg/mL was in the range of 2 to 3.
On to `C/C(=N\NC(=O)c1ccc(C(=O)O)s1)c1csc(-c2ccc(Cl)c(Cl)c2)c1O` [Compound 6], for which the fold induction at 1 µg/mL is 2 to 3.
Consider `C/C(=N\NC(=O)c1ccc(C(=O)O)s1)c1csc(-c2ccc(C(F)(F)F)cc2)c1O` [Compound 7], for which the fold induction at 1 µg/mL was at least 3.
For `C/C(=N\NC(=O)c1ccc(C(=O)O)c([NH2+][O-])c1)c1csc(-c2ccc(C(F)(F)F)cc2)c1O` [Compound 8], the fold induction at 1 µg/mL was at least 3.
`C/C(=N\NC(=S)Nc1ccc(C(=O)O)c([N+](=O)[O-])c1)c1csc(-c2ccc(C(C)(C)C)cc2)c1O` [Compound 10]: the fold induction at 1 µg/mL is at least 3.
For `C/C(=N\NC(=S)Nc1ccc(C(=O)O)c([N+](=O)[O-])c1)c1csc(-c2ccc(Cl)c(Cl)c2)c1O` [Compound 11], the fold induction at 1 µg/mL is at least 3.
Turning to `C/C(=N\NC(=S)Nc1ccc(C(=O)O)c([N+](=O)[O-])c1)c1csc(-c2ccc(C(F)(F)F)cc2)c1O` [Compound 12], the fold induction at 1 µg/mL was at least 3.
Turning to `C/C(=N\NC(=S)Nc1ccc(C(=O)O)c(Cl)c1)c1nn(C)c(-c2ccc(C(F)(F)F)cc2)c1O` [Compound 13], the fold induction at 1 µg/mL was at least 3.
For the compound `C/C(=N\NC(=S)Nc1ccc(C(=O)O)c(Cl)c1)c1csc(-c2ccc(Cl)c(Cl)c2)c1O` [Compound 14], the fold induction at 1 µg/mL was at least 3.
On the same count and under the same terms, the figure for `C/C(=N\NC(=O)c1ccc(C(=O)N2CCCC2)s1)c1csc(-c2ccc(C(F)(F)F)cc2)c1O` [Compound 15] is at least 3; for `C/C(=N\NC(=S)Nc1cccc(C(=O)O)c1)c1csc(-c2ccc(Cl)c(Cl)c2)c1O` [Compound 16] it is 2 to 3; for `C/C(=N\NC(=S)Nc1cccc(C(=O)O)c1)c1nn(C)c(-c2ccc(C(F)(F)F)cc2)c1O` [Compound 18] it is at least 3.
Same read-out and setting: the value for `C/C(=N\NC(=O)c1ccc(C(=O)NCCO)s1)c1csc(-c2ccc(C(F)(F)F)cc2)c1O` [Compound 19] was at least 3.
The same measure, in the same setting: the value for `C/C(=N\NC(=S)Nc1cccc(C(=O)O)c1)c1csc(-c2ccc(C(C)(C)C)cc2)c1O` [Compound 20] was at least 3; that for `C/C(=N\NC(=S)Nc1cccc(C(=O)O)c1)c1csc(-c2ccc(C)c(C)c2)c1O` [Compound 21] was at least 3.
In the case of `C/C(=N\NC(=S)Nc1ccc(C(=O)O)cc1)c1csc(-c2ccc(C)c(C)c2)c1O` [Compound 22], the fold induction at 1 µg/mL was at least 3.
For `C/C(=N\NC(=S)Nc1ccc(S(N)(=O)=O)cc1)c1nn(C)c(-c2ccc(Cl)c(Cl)c2)c1O` [Compound 23], the fold induction at 1 µg/mL lay in the range of 2 to 3.
On to `C/C(=N\NC(=O)c1ccc(C(=O)O)cc1N)c1nn(C)c(-c2ccc(C(F)(F)F)cc2)c1O` [Compound 24], for which the fold induction at 1 µg/mL is at least 3.
Take `C/C(=N\NC(=O)c1ccc(C(=O)NCC(=O)O)s1)c1csc(-c2ccc(OC(F)(F)F)cc2)c1O` [Compound 25]: the fold induction at 1 µg/mL is at least 3.
`C/C(=N\NC(=O)c1ccc(C(=O)NC(C)C)s1)c1nn(C)c(-c2ccc(Cl)c(Cl)c2)c1O` [Compound 26]: the fold induction at 1 µg/mL was at least 3.
Consider `C/C(=N\NC(=O)c1ccc(C(=O)NCCc2ccccn2)s1)c1csc(-c2ccc(Cl)c(Cl)c2)c1O` [Compound 27], for which the fold induction at 0.3 µg/mL is 2 to 3.
Regarding `C/C(=N\NC(=O)c1ccc(C(=O)NCCc2ccncc2)s1)c1csc(-c2ccc(Cl)c(Cl)c2)c1O` [Compound 28], the fold induction at 1 µg/mL was at least 3.
Regarding `C/C(=N\NC(=O)c1ccc(C(=O)NCCc2cccnc2)s1)c1csc(-c2ccc(Cl)c(Cl)c2)c1O` [Compound 29], the fold induction at 0.3 µg/mL was at least 3.
For `C/C(=N\NC(=O)c1ccc(C(=O)NCCc2ccncc2)s1)c1csc(-c2ccc(OC(F)(F)F)cc2)c1O` [Compound 30], the fold induction at 0.3 µg/mL was at least 3.
In the case of `C/C(=N\NC(=O)c1ccc(C(=O)NCCc2ccncc2)s1)c1csc(-c2ccc(C(F)(F)F)cc2)c1O` [Compound 31], the fold induction at 0.3 µg/mL was at least 3.
As for `C/C(=N\NC(=O)c1ccc(C(=O)NCCc2cccnc2)s1)c1csc(-c2ccc(OC(F)(F)F)cc2)c1O` [Compound 32], the fold induction at 0.3 µg/mL was at least 3.
Turning to `C/C(=N\NC(=O)c1ccc(C(=O)NCCc2cccnc2)s1)c1csc(-c2ccc(C(F)(F)F)cc2)c1O` [Compound 33], the fold induction at 0.3 µg/mL is at least 3.
Regarding `C/C(=N\NC(=O)c1ccc(C(=O)NCCCc2ccncc2)s1)c1csc(-c2ccc(Cl)c(Cl)c2)c1O` [Compound 34], the fold induction at 1 µg/mL is at least 3.
In the case of `C/C(=N\NC(=O)c1ccc(C(=O)NCCc2ccnn2C)s1)c1csc(-c2ccc(Cl)c(Cl)c2)c1O` [Compound 35], the fold induction at 1 µg/mL was at least 3.
Take `C/C(=N\NC(=O)c1ccc(C(=O)NCCCc2ccncc2)s1)c1csc(-c2ccc(C(F)(F)F)cc2)c1O` [Compound 36]: the fold induction at 1 µg/mL is at least 3.
Regarding `C/C(=N\NC(=O)c1ccc(C(=O)NCc2cc(C)n(C)n2)s1)c1nn(C)c(-c2ccc(C(F)(F)F)cc2)c1O` [Compound 37], the fold induction at 1 µg/mL is at least 3.
